After the bases stand the sugars from the 5' end (letter, count) and the backbone: PS all phosphorothioate, else s phosphorothioate and o phosphodiester by linkage. Methylation of C is not given here. e = 2'-O-(2-methoxyethyl) (MOE); k = constrained ethyl (cEt); d = 2'-deoxy (DNA); m = 2'-O-methyl
Biological target: HSD17B13
Settings: ASO, HepaRG

Sequence | target mRNA inhibition (1 µM) [%] | other results
AAGTCCAGAATAGAGT (sugars k3 d10 k3, PS) | 60 | –
ATGCAAGATTTACTTC (sugars k3 d10 k3, PS) | 38 | –
ACCAAGGCCATGACAT (sugars k3 d10 k3, PS) | 17 | –
GCAAAAGGAGCCAGTT (sugars k3 d10 k3, PS) | 57 | –
CATAAGTTACCAGAGC (sugars k3 d10 k3, PS) | 80 | target mRNA inhibition (0.02 µM): 26%; target mRNA inhibition (0.078 µM): 41%; target mRNA inhibition (0.313 µM): 63%; target mRNA inhibition (1.25 µM): 86%; target mRNA inhibition (5 µM): 94%
CTTACCAATATGGGAT (sugars k3 d10 k3, PS) | 11 | –
TGCCTGCTGAAACTTG (sugars k3 d10 k3, PS) | 31 | –
ATTCACATATGTGAAG (sugars k3 d10 k3, PS) | 0 | –
GTCACCTTTCATAATG (sugars k3 d9 k3 e1, PS) | 21 | –
GCTGUAAGAGTCAGTA (sugars k3 d1 m1 d8 k3, PS) | 28 | –
TTAAAATAGAGTCGGT (sugars kkdddddddddkekek, PS) | 51 | –
GCTTATGAAGTTAGTA (sugars k3 d10 k3, PS) | 67 | target mRNA inhibition (0.02 µM): 0%; target mRNA inhibition (0.078 µM): 17%; target mRNA inhibition (0.313 µM): 27%; target mRNA inhibition (1.25 µM): 66%; target mRNA inhibition (5 µM): 86%
CCATCTAGAATTAAGG (sugars k3 d10 k3, PS) | 0 | –
CCTTGAATAGCAAGCC (sugars k3 d10 k3, PS) | 61 | –
CGACTCCAAGTAGGAG (sugars k3 d10 k3, PS) | 10 | –
TGTGGCATGGCTACAG (sugars k3 d1 m1 d8 k3, PS) | 5 | –
CATCAAGACATTCTAG (sugars k3 d10 k3, PS) | 49 | –
AACTUCATAGTGGACT (sugars k3 d1 m1 d8 k3, PS) | 38 | –
GGTCCATTGTTTCTTA (sugars k3 d10 k3, PS) | 36 | –

Sequence | target mRNA inhibition (1 µM) [%] | other results
TCAAAACCTTTGTTGC (sugars k3 d10 k3, PS) | 6 | –
TGTGAAGAGCTGGTAA (sugars k3 d10 k3, PS) | 41 | –
GATTTAAAATAGAGTC (sugars k3 d10 k3, PS) | 46 | –
ACACCGCGCTTATTAA (sugars k3 d10 k3, PS) | 7 | –
GTCTAAACATCTCTGG (sugars k3 d10 k3, PS) | 58 | –
TTAGCAAGCTAAGAGA (sugars k3 d10 k3, PS) | 42 | –
GATGATTCTGACTCAT (sugars k3 d10 k3, PS) | 55 | –
AAAGGTGGGATAAACT (sugars k3 d10 k3, PS) | 33 | –
TTAAAATAGAGTCGGT (sugars k3 d10 k3, PS) | 65 | –
TTAAACCTTCCCTGTG (sugars k3 d10 k3, PS) | 22 | –
CGGTCACCTTTCATAA (sugars k3 d1 m1 d8 k3, PS) | 42 | –
CTCCTTATGTTATCTC (sugars k3 d10 k3, PS) | 57 | –
CGGCTGGATATACTGT (sugars k3 d10 k3, PS) | 35 | –
AGTGTAAGCTGAGAGT (sugars k3 d10 k3, PS) | 71 | –
GAAAAGATGTACACTG (sugars k3 d10 k3, PS) | 56 | –
GCCAAAAATCAGCCAC (sugars k3 d10 k3, PS) | 11 | –
TGTGTTAGCTTTAATT (sugars k3 d10 k3, PS) | 38 | –
CTGTGGCATGGCTACA (sugars k3 d9 k3 e1, PS) | 58 | –
TCATAGCTCACTTAGT (sugars k3 d10 k3, PS) | 0 | –

Sequence | target mRNA inhibition (1 µM) [%] | other results
AGTAAATGATGGCAGG (sugars k3 d10 k3, PS) | 40 | –
TTAAGTACTGTGAGAC (sugars k3 d10 k3, PS) | 35 | –
TAATAATGGGCAGAGC (sugars k3 d10 k3, PS) | 30 | –
ACATTAGCAAGCTAAG (sugars k3 d9 k3 e1, PS) | 41 | –
GATTAGTTAACCTTTT (sugars k3 d10 k3, PS) | 58 | –
CATCTATCATGCCTTC (sugars k3 d10 k3, PS) | 18 | –
ATACGATGGAACAAAA (sugars k3 d10 k3, PS) | 27 | –
CTCAGAGTTCAGGCAA (sugars k3 d10 k3, PS) | 67 | –
GGATAAGAAGAGAGCT (sugars k3 d10 k3, PS) | 46 | –
GGCTTAATGTTCAGTT (sugars k3 d10 k3, PS) | 54 | –
ACCAAGTAGCTTACAT (sugars k3 d10 k3, PS) | 2 | –
TGATGTAGTGGGAGTC (sugars kkdddddddddkekek, PS) | 46 | –
CCTAAGATAAAATTGC (sugars k3 d10 k3, PS) | 18 | –
ATCTAGAACACTTGCC (sugars k3 d10 k3, PS) | 27 | –
TAAACCCTGGAGCAGC (sugars k3 d10 k3, PS) | 66 | –
TTCAGAGTTATACAGA (sugars k3 d10 k3, PS) | 66 | –
AAGATATTGATATACG (sugars k3 d10 k3, PS) | 45 | –
TAGAGTCGGTCACCTT (sugars k3 d9 k3 e1, PS) | 59 | –
